Like-named read-outs stand apart in the source and are kept apart here.
Assays:
5-HT2A receptors = system: 5-HT2A receptors; set-up: method as in PMID 25237120, PMID 23583454; details: significantly lower potencies than MDMA; cited from earlier work
5-HT2C receptors = system: 5-HT2C receptors; set-up: method as in PMID 25237120, PMID 23583454; details: cited from earlier work
users = system: users; set-up: method as in earlier work; details: cited from earlier work
[1] = Oral fluid concentrations (Salivette, LC-MS/MS); type: in vivo, humans; details: both sexes, human; for Cmax / AUC(0-t): methylone 100–300 mg n=8, MDMA 75–100 mg n=6, mean ± SD; for AUC(0-t): read-out: Oral fluid AUC0–4 h; for Tmax: methylone 100–300 mg n=8, MDMA 75–100 mg n=6, median (min–max)
Procedure: In both sessions, oral fluid samples were collected with Salivette to determine methylone and MDMA concentrations in oral fluid at baseline, 1 h, 2 h, and 4 h. All samples were centrifuged after collection and stored frozen at −20 °C until analysis. Methylone and MDMA oral fluid concentrations were quantified via liquid chromatography tandem–mass spectrometry (LC–MS/MS).
For oral fluid concentrations of MDMA and methylone, only a descriptive analysis was presented showing main pharmacokinetics data such as the maximum concentration (Cmax), the time required to reach maximum concentrations (Tmax), and AUC0–4h. These parameters were calculated using the Pharmacokinetic Functions for Microsoft Excel (Joel Usansky, Atul Desai, and Diane Tang-Liu, Department of Pharmacokinetics and Drug Metabolism, Allergan, Irvine, CA, USA).

CYP2D6 = details: limited contribution of CYP1A2, CYP2B6, CYP2C19; cited from earlier work
5-HT1A receptor = system: 5-HT1A receptor; set-up: method as in PMID 25237120, PMID 23583454; details: cited from earlier work
[2] = cited from earlier work; for Median overall OF/B ratio: oral fluid vs plasma
[3] = Oral fluid to blood (OF/B) concentration ratio and plasma concentration; details: human, 100 mg
[4] = oral administration, user reports

Compound	Affinity for binding 5-HT2A receptors (5-HT2A receptors)	Activity at 5-HT2C receptors (5-HT2C receptors)	Threshold dose (users; WHO Expert Committee on Drug Dependence) [mg]	Onset of effects after administration (users; [4]) [min]	Time of peak effects (users; [4]) [min]	Total duration of effects (users; [4]) [h]	Cmax [1] [ng/mL]	AUC(0-t) [1] [ng·h/mL]	Tmax [1] [h]	Enzymes metabolizing the substance in the liver (CYP2D6)	Activity at the 5-HT1A receptor (5-HT1A receptor)	Maximum oral fluid to blood (OF/B) ratio ([2]; at 1.5 h after a 100 mg dose)	Median overall OF/B ratio ([2]; high dose 1.6 mg/kg)	Median overall OF/B ratio ([2]; low dose 1.0 mg/kg)	Kp [3]
CNC(C)C(=O)c1ccc2c(c1)OCO2 (stereo not shown) [Methylone, 3,4-methylenedioxymethcathinone]	some affinity	weak antagonist effects	60	15 to 60	60 to 90	3 to 5	15500	40600	2	principally by the enzymatic activity of CYP2D6	partial agonist	–	–	–	–
CNC(C)Cc1ccc2c(c1)OCO2 (stereo not shown) [MDMA, 3,4-methylenedioxymethamphetamine]	–	partial agonist rather than an antagonist	–	–	–	–	2940 ± 2760	6590 ± 5230	2	–	–	18.1 ± 7.9	6.0	5.2	22.4

Source: publication PMC8389614, “A Comparison of Acute Pharmacological Effects of Methylone and MDMA Administration in Humans and Oral Fluid Concentrations as Biomarkers of Exposure” (Biology, 2021)
